Measurements reported in patent US5292669A, “Agents for the detection of substrates with hydrolase activity” (Boehringer Mannheim GmbH, priority 1992, dated 1994).

Assays:
lipase = assay: spot test: hydrolysis of substrate on buffer-oxidation agent paper, visual colour evaluation; format: biochemical; parameters: key: +: coloration; ++: strong coloration; +++: strong and rapid coloration; settings: potassium ferricyanide, enzyme about 1000 U/ml., ambient temperature
Protocol: (§1) In a spot test, there was investigated the hydrolysis of various compounds by appropriate hydrolases (aryl sulphatase, acidic and alkaline phosphatase, esterase, acetyl-β-O-glucosamidase and lipase). The base thereby liberated was simultaneously oxidized by potassium ferricyanide to the colored material and the color formation evaluated visually.
(§2) The rate of hydrolysis was evaluated visually at pH 6.0, as well as at pH 9.0, by spotting a hydrolase solution on to a substrate-buffer-oxidation agent-paper. The enzyme concentration was about 1000 U/ml. and the test temperature was ambient temperature. The non-enzymatic hydrolysis with a 0.9% aqueous sodium chloride solution as sample was evaluated for the purpose of comparison.
(§3) Impregnation solution: 100 mmole/liter potassium dihydrogen phosphate 10 mmole/liter potassium ferricyanide 2% Pluronic® F 68
(§4) The pH value was adjusted to 6.0 with a 2N aqueous solution of potassium hydroxide.
(§5) Impregnation solution: 100 mmole/liter glycine 10 mmole/liter potassium ferricyanide 2% Pluronic® 68
(§6) The pH value was adjusted to 9.0 with a 2N aqueous solution of sodium hydroxide.
(§7) Impregnation: An 8×30 cm. paper fleece (Whatman 3M) was impregnated with 8 ml. of impregnation solution and dried for 30 minutes at 50° C. in a drying cabinet.
(§8) The so impregnated buffer-oxidation agent papers were cut up into 8×2 cm. strips and post-impregnated with substrate solution. Substrate solution/impregnation solution: 5 mg. of the substrate to be tested (or the free base) were dissolved or suspended in 1 ml. methanol and, in each case, 10 μl. thereof applied to the buffer-oxidation agent papers. The solvent was evaporated with a blow drier. On to this substrate oxidation agent surface were then dosed on the hydrolase solutions and evaluated. […]

[1] = tested on: esterase from hog's liver; assay: as above; format: biochemical; parameters: key: +: coloration; ++: strong coloration; +++: strong and rapid coloration; settings: potassium ferricyanide, enzyme about 1000 U/ml., ambient temperature; for Coloration pH 6: pH 6.0 fleece; for Coloration pH 9: pH 9.0 fleece
Protocol: as §1, §2, §3, §4, §5, §6, §7, §8

alkaline phosphatase = assay: as above; format: biochemical; parameters: key: +: coloration; ++: strong coloration; +++: strong and rapid coloration; settings: potassium ferricyanide, enzyme about 1000 U/ml., ambient temperature; for Coloration pH 9: pH 9.0 fleece; for Coloration pH 6: pH 6.0 fleece
Protocol: as §1, §2, §3, §4, §5, §6, §7, §8

[2] = tested on: N-acetyl-β-D-glucosaminidase; assay: as above; format: biochemical; parameters: key to Coloration pH 6 / Coloration pH 9: +: coloration; ++: strong coloration; +++: strong and rapid coloration
Protocol: as §1, §2, §3, §4, §5, §6, §7, §8

[3] = biological target: T1, β-galactosidase labelled immune complex (Escherichia coli, UniProt P00722); assay: hCG test carrier: colour formation from galactosidase substrate; settings: hCG-containing sample, sodium perborate/horseradish peroxidase, pH 7, within 10 minutes
[4] = biological target: T1, β-galactosidase labelled immune complex; assay: thyroxine (T4) test strip: colour formation from galactosidase substrate; format: biochemical; settings: T4-containing sample, sodium perborate/horseradish peroxidase, after 10 minutes
Protocol: Fleece 14 is impregnated with a conjugate of β-galactosidase with an antibody against T4.
A piece of paper (Schleicher & Schull 3512) was activated with cyanogen bromide and T4 succinimide ester bound thereon.
d) Fleece 13 serves for the sample application.
For the production of the test carrier 11, the fleece are fixed to a base film 12 as shown in FIG. 2 of the accompanying drawings.
The sample was prepared analogously to Example 15.
The test strip 11 was placed with the end 17 in the solution. The T4-containing sample penetrates into the fleece 13. From there, it flows on into fleece 14 from where it dissolves off the β-galactosidase conjugate. […] The solution which now, besides this immune complex, also contains an excess of the β-galactosidase conjugate, penetrates into fleece 15. This excess is there bound to the paper via bound T4.
The solution which still contains the immune complex penetrates into fleece 16. The process according to the invention for the detection of the β-galactosidase labelled immune complex, which represents the substance with hydrolase activity, there takes place. The more of this complex and thus also the more of T4 was present in the solution, the more strongly has the fleece 16 become red colored after 10 minutes. In the case of the absence of T4, the fleece 16 remains white.

T1 sequence (P00722 2-1024, one chain of several): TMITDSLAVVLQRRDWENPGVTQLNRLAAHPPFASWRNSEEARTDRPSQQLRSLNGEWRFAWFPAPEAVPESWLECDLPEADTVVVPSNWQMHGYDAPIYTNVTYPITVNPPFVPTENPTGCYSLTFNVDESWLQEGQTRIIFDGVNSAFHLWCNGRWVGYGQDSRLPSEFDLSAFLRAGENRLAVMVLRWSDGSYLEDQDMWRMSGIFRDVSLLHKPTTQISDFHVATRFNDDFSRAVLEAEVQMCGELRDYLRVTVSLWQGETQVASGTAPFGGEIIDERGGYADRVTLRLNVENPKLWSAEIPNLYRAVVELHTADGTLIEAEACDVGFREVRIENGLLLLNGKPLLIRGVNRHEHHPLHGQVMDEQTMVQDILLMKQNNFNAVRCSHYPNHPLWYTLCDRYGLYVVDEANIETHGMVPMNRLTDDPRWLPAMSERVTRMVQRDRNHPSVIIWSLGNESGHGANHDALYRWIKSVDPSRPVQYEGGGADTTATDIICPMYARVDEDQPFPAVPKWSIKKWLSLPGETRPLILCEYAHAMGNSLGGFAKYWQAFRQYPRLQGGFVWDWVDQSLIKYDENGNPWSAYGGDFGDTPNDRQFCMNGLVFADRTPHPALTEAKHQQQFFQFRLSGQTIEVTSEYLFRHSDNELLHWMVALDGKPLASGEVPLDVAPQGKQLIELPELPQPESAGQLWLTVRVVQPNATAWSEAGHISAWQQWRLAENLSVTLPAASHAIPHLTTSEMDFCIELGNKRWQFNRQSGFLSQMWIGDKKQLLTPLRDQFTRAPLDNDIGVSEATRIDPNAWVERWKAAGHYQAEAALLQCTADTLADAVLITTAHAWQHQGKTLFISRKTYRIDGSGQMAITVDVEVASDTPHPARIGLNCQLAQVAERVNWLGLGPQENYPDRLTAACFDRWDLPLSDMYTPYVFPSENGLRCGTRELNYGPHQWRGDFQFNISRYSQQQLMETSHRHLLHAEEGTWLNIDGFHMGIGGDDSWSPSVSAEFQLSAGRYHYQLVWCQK

Structure (SMILES)	Coloration pH 6 [1]	Coloration pH 9 [1]	Coloration pH 9 (alkaline phosphatase)	also measured
CCCC(=O)Oc1ccc(-c2nc(-c3ccc(N(C)C)cc3)c(C)[nH]2)cc1OC [Example 5b, 4-[4-(4-Dimethylaminophenyl)-5-methyl-1H-imidazol-2-yl]-2-methoxyphenyl butanoate]	++	+++	–	Coloration pH 6 (lipase; pH 6.0 fleece): ++; Coloration pH 9 (lipase; pH 9.0 fleece): +++
COc1cc(-c2nc(-c3ccc(N(C)C)cc3)c(C)[nH]2)cc(OC)c1OP(=O)(O)O [Example 6a, 4-[4-(4-Dimethylaminophenyl)-5-methyl-1H-imidazol-2-yl]-2,6-dimethoxyphenyldihydrogen phosphate]	–	–	+++	–
COc1cc(-c2nc(-c3ccc(N(C)C)cc3)c(C)[nH]2)ccc1OC(C)=O [Example 4, 4-[4-(4-Dimethylaminophenyl)-5-methyl-1H-imidazol-2-yl]-2-methoxyphenyl acetate]	++	+++	–	–
COc1cc(-c2nc(-c3ccc(N(C)C)cc3)c(-c3ccc(N(C)C)cc3)o2)cc(OC)c1OP(=O)(O)O [Example 7a, 4-[4,5-Bis-(4-dimethylaminophenyl)-oxazol-2-yl]-2,6-dimethoxyphenyl dihydrogen phosphate]	–	–	+++	Coloration pH 6 (alkaline phosphatase): ++
COc1cc(-c2nc(-c3ccc(N(C)C)cc3)c(-c3ccccc3)[nH]2)cc(OC)c1OP(=O)(O)O [Example 6b, 4-[4-(4-Dimethylaminophenyl)-5-phenyl-1H-imidazol-2-yl]-2,6-dimethoxyphenyldihydrogen phosphate]	–	–	+++	Coloration pH 6 (alkaline phosphatase): ++
CCCCCCCCCCCC(=O)Oc1ccc(-c2nc(-c3ccc(N(C)C)cc3)c(C)[nH]2)cc1OC [Example 5, 4-[4-(4-Dimethylaminophenyl)-5-methyl-1H-imidazol-2-yl]-2-methoxyphenyl dodecanoate]	+	++	–	–
COc1cc(-c2nc(-c3ccc(N(C)C)cc3)c(C)o2)ccc1OP(=O)(O)O [Example 7, 4-[4-(4-Dimethylaminophenyl)-5-methyl-oxazol-2-yl]-2-methoxyphenyl dihydrogen phosphate]	–	–	++	Coloration pH 6 (alkaline phosphatase): +
COc1cc(-c2nc(-c3ccc(N(C)C)cc3)c(C)[nH]2)ccc1OP(=O)(O)O [Example 6, 4-[4-(4-Dimethylaminophenyl)-5-methyl-1H-imidazol-2-yl]-2-methoxyphenyl dihydrogen phosphate]	–	–	++	–
COc1cc(-c2nc(-c3ccc(N(C)C)cc3)c(-c3ccc(N(C)C)cc3)[nH]2)cc(OC)c1OP(=O)(O)O [Example 6c, 4-[4,5-Bis-(4-dimethylaminophenyl)-1H-imidazol-2-yl]-2,6-dimethoxyphenyl dihydrogen phosphate]	–	–	++	Coloration pH 6 (alkaline phosphatase): +
COc1cc(-c2nc(-c3ccc(N(C)C)cc3)c(C)[nH]2)ccc1O[C@@H]1O[C@H](CO)[C@@H](O)[C@H](O)[C@H]1NC(C)=O [Example 8, {4-[4-(4-Dimethylaminophenyl)-5-methyl-1H-imidazol-2-yl]-2-methoxyphenyl}-2-acetamido-2-deoxy-ε-D-glucopyranoside]	–	–	–	suitability as substrate (strong blue coloration) ([2]; at pH 6 and pH 9): very good substrate; Coloration pH 6 ([2]; pH 6.0 fleece, potassium ferricyanide, enzyme about 1000 U/ml., ambient temperature, visual): +++; Coloration pH 9 ([2]; pH 9.0 fleece, potassium ferricyanide, enzyme about 1000 U/ml., ambient temperature, visual): +++
COc1cc(-c2nc(-c3ccc(N(C)C)cc3)c(C)s2)cc(OC)c1OC(C)=O [Example 4b, 4-[4-(4-Dimethylaminophenyl)-5-methylthiazol-2-yl]-2,6-dimethoxyphenyl acetate]	+	++	–	–
COc1ccc(-c2nc(-c3ccc(O[C@@H]4O[C@H](CO)[C@H](O)[C@H](O)[C@H]4O)c(OC)c3)[nH]c2-c2ccc(OC)cc2)cc1 [Example 12, 2-(4-β-D-Galactopyranosyloxy-3-methoxyphenyl)-4,5-bis-(4-methoxyphenyl)-I,3-imidazole]	–	–	–	colour formed in fleece 6 [3]: red color; colour of fleece 16 [4]: red colored
COc1cc(-c2nc(-c3ccc(N(C)C)cc3)c(-c3ccc(N(C)C)cc3)[nH]2)cc(OC)c1OC(C)=O [Example 4d, 4-[4,5-Bis-(4-dimethylaminophenyl)-1H-imidazol-2-yl]-2,6-dimethoxyphenyl acetate]	++	++	–	–
COc1cc(-c2nc(-c3ccc(N(C)C)cc3)c(C)o2)ccc1OC(C)=O [Example 4a, 4-[4-(4-Dimethylaminophenyl)-5-methyloxazol-2-yl]-2-methoxyphenyl acetate]	+++	+++	–	–

Second part, led by results:

Coloration pH 6 [1]	Coloration pH 9 [1]	Structure (SMILES)	Coloration pH 9 (alkaline phosphatase)	also measured
+	++	CCC(=O)Oc1ccc(-c2nc(-c3ccc(N(C)C)cc3)c(C)[nH]2)cc1OC [Example 5a, 4-[4-(4-Dimethylaminophenyl)-5-methyl-1H-imidazol-2-yl]-2-methoxyphenyl propanoate]	–	–
++	++	CCCCC(=O)Oc1ccc(-c2nc(-c3ccc(N(C)C)cc3)c(C)[nH]2)cc1OC [Example 5c, 4-[4-(4-Dimethylaminophenyl)-5-methyl-1H-imidazol-2-yl]-2-methoxyphenyl pentanoate]	–	–
++	+++	CCCCCCCC(=O)Oc1ccc(-c2nc(-c3ccc(N(C)C)cc3)c(C)[nH]2)cc1OC [Example 5d, 4-[4-(4-Dimethylaminophenyl)-5-methyl-1H-imidazol-2yl]-2-methoxyphenyl octanoate]	–	–
